In patent US20220281848A1, “PYRAZOLE-SUBSTITUTED PYRROLIDINONES AS HERBICIDES” (FMC Corporation, priority 2019, published 2022):

Legend:
Format in all cases: in vivo
plants = assay: Test D post-emergence, other plants of Tables D2 and D4; details: post-emergence
Summary of the method: (§1)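 Damage was rated visually from 0 (none) to 100 (total), at 20 DAA for pre-emergence and 15 d for post-emergence. Plants grew from safener-treated seed in a glasshouse at 24/18° C. or 20/16° C. day/night, 65% humidity, watered twice daily.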

corn (Zea mays, ZEAMX) = assay: Test A pre-emergence, corn; details: after 13 d
Summary of the method: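 Each compound is applied pre-emergence at 15.625, 62.5 or 250 g/ha, one day after seeds are sown in standard soil. Plants are then grown in a glasshouse at 24/16° C. with 14 h light and 65% humidity, and injury is scored 0–100 at 13 d.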

[1] = test system: ivy-leaved morning glory (Ipomoea hederacea, IPOHE); assay: Test A post-emergence, ivy-leaved morning glory; details: after 13 d
Summary of the method: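 Visual damage at 13 d after treatment, rated from 0 (no damage) to 100 (total damage). Eight-day-old pot-grown plants had been sprayed with 15.625, 62.5 or 250 g/ha of compound in aqueous acetone (50:50) containing 0.5% Tween 20.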

wheat = assay: Test D pre-emergence, wheat seed treated with a herbicide safener; details: 100=total damage, 0=no damage
Summary of the method: as §1

CN1CC(c2cc(C(F)(F)F)n(C)n2)C(C(=O)Nc2ccc(F)nc2F)C1=O (racemic) [Compound 22]
damage to plant (100=total damage to plant; 0=no damage to plant), AMARE (plants; AMARE, rate 500, evaluated after 15 d): 0
damage to plant (100=total damage to plant; 0=no damage to plant), BIDPI (plants; rate 130, evaluated after 15 d): 0
damage to plant (100=total damage to plant; 0=no damage to plant), BIDPI (plants; rate 250, evaluated after 15 d): 0
damage to plant (100=total damage to plant; 0=no damage to plant), BIDPI (plants; rate 500, evaluated after 15 d): 20
damage to plant (100=total damage to plant; 0=no damage to plant), BRAPL (plants; rate 130, evaluated after 15 d): 0
damage to plant (100=total damage to plant; 0=no damage to plant), BRAPL (plants; rate 250, evaluated after 15 d): 50
damage to plant (100=total damage to plant; 0=no damage to plant), BRAPL (plants; rate 500, evaluated after 15 d): 70
damage to plant (100=total damage to plant; 0=no damage to plant), CYPES (plants; rate 130, evaluated after 15 d): 0
damage to plant (100=total damage to plant; 0=no damage to plant), CYPES (plants; rate 250, evaluated after 15 d): 0
damage to plant (100=total damage to plant; 0=no damage to plant), CYPES (plants; rate 500, evaluated after 15 d): 10
damage to plant (100=total damage to plant; 0=no damage to plant), DIGSA (plants; rate 130, evaluated after 15 d): 40
damage to plant (100=total damage to plant; 0=no damage to plant), DIGSA (plants; rate 250, evaluated after 15 d): 60
damage to plant (100=total damage to plant; 0=no damage to plant), DIGSA (plants; rate 500, evaluated after 15 d): 60
damage to plant (100=total damage to plant; 0=no damage to plant), ECHCG (plants; rate 130, evaluated after 15 d): 0
damage to plant (100=total damage to plant; 0=no damage to plant), ECHCG (plants; rate 250, evaluated after 15 d): 40
damage to plant (100=total damage to plant; 0=no damage to plant), ECHCG (plants; rate 500, evaluated after 15 d): 50
damage to plant (100=total damage to plant; 0=no damage to plant), ELEIN (plants; rate 130, evaluated after 15 d): 10
damage to plant (100=total damage to plant; 0=no damage to plant), ELEIN (plants; rate 250, evaluated after 15 d): 10
damage to plant (100=total damage to plant; 0=no damage to plant), ELEIN (plants; rate 500, evaluated after 15 d): 40
damage to plant (100=total damage to plant; 0=no damage to plant), EPHHL (plants; rate 130, evaluated after 15 d): 0
damage to plant (100=total damage to plant; 0=no damage to plant), EPHHL (plants; rate 250, evaluated after 15 d): 20
damage to plant (100=total damage to plant; 0=no damage to plant), EPHHL (plants; rate 500, evaluated after 15 d): 30
damage to plant (100=total damage to plant; 0=no damage to plant), GLXMA (plants; rate 130, evaluated after 15 d): 0
damage to plant (100=total damage to plant; 0=no damage to plant), GLXMA (plants; rate 250, evaluated after 15 d): 10
damage to plant (100=total damage to plant; 0=no damage to plant), GLXMA (plants; rate 500, evaluated after 15 d): 40
damage to plant (100=total damage to plant; 0=no damage to plant), IPOHE (plants; rate 130, evaluated after 15 d): 10
damage to plant (100=total damage to plant; 0=no damage to plant), IPOHE (plants; rate 250, evaluated after 15 d): 30
damage to plant (100=total damage to plant; 0=no damage to plant), IPOHE (plants; rate 500, evaluated after 15 d): 50
damage to plant (100=total damage to plant; 0=no damage to plant), ORYSA (plants; rate 130, evaluated after 15 d): 0
damage to plant (100=total damage to plant; 0=no damage to plant), ORYSA (plants; rate 250, evaluated after 15 d): 0
damage to plant (100=total damage to plant; 0=no damage to plant), ORYSA (plants; rate 500, evaluated after 15 d): 0
damage to plant (100=total damage to plant; 0=no damage to plant), PANMI (plants; rate 130, evaluated after 15 d): 70
damage to plant (100=total damage to plant; 0=no damage to plant), PANMI (plants; rate 250, evaluated after 15 d): 20
damage to plant (100=total damage to plant; 0=no damage to plant), PANMI (plants; rate 500, evaluated after 15 d): 40
damage to plant (100=total damage to plant; 0=no damage to plant), SETFA (plants; rate 130, evaluated after 15 d): 0
damage to plant (100=total damage to plant; 0=no damage to plant), SETFA (plants; rate 250, evaluated after 15 d): 0
damage to plant (100=total damage to plant; 0=no damage to plant), SETFA (plants; rate 500, evaluated after 15 d): 20
damage to plant (100=total damage to plant; 0=no damage to plant), SORVU (plants; rate 130, evaluated after 15 d): 0
damage to plant (100=total damage to plant; 0=no damage to plant), SORVU (plants; rate 250, evaluated after 15 d): 0
damage to plant (100=total damage to plant; 0=no damage to plant), SORVU (plants; rate 500, evaluated after 15 d): 0
damage to plant (100=total damage; 0=no damage) ZEAMX (corn (Zea mays, ZEAMX); Pre-Emergence at 15.625 g/ha): 0
damage to plant (100=total damage; 0=no damage) ZEAMX (corn (Zea mays, ZEAMX); Pre-Emergence at 62.5 g/ha): 20
damage to plant (100=total damage; 0=no damage) ZEAMX (corn (Zea mays, ZEAMX); Pre-Emergence at 250 g/ha): 40
damage to plant (100=total damage; 0=no damage) IPOHE ([1]; Post-Emergence at 15.625 g/ha): 0
damage to plant (100=total damage; 0=no damage) IPOHE ([1]; Post-Emergence at 62.5 g/ha): 10
damage to plant (100=total damage; 0=no damage) IPOHE ([1]; Post-Emergence at 250 g/ha): 30
damage to plant, TRZAW (wheat; rate 15, 20 DAA): 0
damage to plant, TRZAW (wheat; rate 30, 20 DAA): 0
damage to plant, TRZAW (wheat; rate 60, 20 DAA): 0
damage to plant, TRZAW (wheat; rate 130, 20 DAA): 0
damage to plant, TRZAW (wheat; rate 250, 20 DAA): 0
damage to plant, TRZAW (wheat; rate 500, 20 DAA): 10
